In EP0095262A1, “Azabicycloalkane derivatives, their preparation and medicaments containing them” (BEECHAM GROUP PLC, priority 1982, dated 1983):

tested on: post-synaptic Dopamine (D.A.) receptors; experiment: Inhibition of apomorphine induced climbing in the mouse; type: in vivo; settings: p.o., ½ hr post dosing; dose for 50% inhibition of climbing induced by apomorphine 1 mg/kg s.c.; male CD1 mice; 30 min
Experimental: The results in the following table are an illustration of the anti-psychotic activity of the present compounds as shown by Inhibition of Apormorphine Induced Climbing in the Mouse, a standard test.
The test is based on that described by Protais, P., Constantin, J. and Schwartz J.C. (1976), Psychopharmacology, 50, 1-6.
When mice are given a dose of 1 mg/kg apomorphine and then placed in an enclosed environment, such as an inverted wire cage, they are seen to climb around the walls. This behavioural phenomenon is thought to be a consequence of the stimulation of post-synaptic Dopamine (D.A.) receptors in the nucleus accumbens. Inhibition of apomorphine induced climbing is therefore indicative of post-synaptic D.A. receptor blockade in the accumbens.
Groups of lO male CD1 mice, weighing 25-30 g were pre-treated orally with either graded doses of the test compound or vehicle, at appropriate time intervals before the subcutaneous administration of a sub-maximal dose of apomorphine (1 mg/kg). Immediately after the apomorphine injection the mice were placed in wire 'climbing cages' and each animal was scored for climbing behavour at 10 and 20 minutes post apomorphine as follows:-
The total score was calculated for each group of mice and expressed as a percentage inhibition of climbing. [formula]
ED50's and fiducial limits were calculated according to the method of Litchfield and Wilcoxon, the ED50 being the dose that produced a 50% inhibition of apomorphine - induced climbing.

Question: For `COc1cc(N)c(Cl)cc1C(=O)NC1CC2CC(C)C(C1)N2Cc1ccc(C)cc1` (stereo not drawn) [Example 1, 4-Amiho-5-chloro-2-rnethoxyy-N-[6'-exo-methyl-8'-(4-methylbenzyl)-8'-azabicycloro[3.2.1]-oct-3-β-yl]-benzamide], which ED50 is on record?
Answer: The ED50 was 0.19 p.o. ½ hr mg/kg.

Question: For “4-Amino-5 -Chloro-2-Methoxy-N-[7'-Methyl-9'-(4-Methylbenzyl)-9'-aza-bicyclo[3.3.1]-non-3-P-yl]benzamide [Example 5]”, which ED50 is on record?
Answer: The ED50 was 0.6 p.o. ½ hr mg/kg.

Question: How did the ED50 turn out when “2-[7'-exo-Methyl-9'-(4-methyl benzyl)-9'-aza-bicyclo[3.3.1] -non-3-β-yl]-phthalimidine [Example 9]” was run?
Answer: Its ED50 is 2.65 p.o. ½ hr mg/kg.

Question: With “4-Amino-5-Chloro-2-Methoxy-N-[6'-exo-methl-9'-(4-methylbenzyl)-9'-aza-bicyclo[3.3.1]-non-3-β-yl]benzamide [Example 7]” as the molecule, how does the ED50 read?
Answer: Its ED50 is 2.75 p.o. ½ hr mg/kg.

Question: How did the ED50 turn out when “2,3-Dimethoxy-N-[7'-exo-Methyl-9'-(4-methylbenzyl)-9'-aza- bicycclo-[3.3.1]-non-3-β-yl]benzamide [Example 8]” was run?
Answer: The ED50 was 0.48 p.o. ½ hr mg/kg.

Question: “4-Amino-5-Chloro-2-Methoxy-N-[6'-endomethyl-9'-(4 methyl- benzyiyl)-9'-aza-bicyclo[3.3,1]-non-3-β- 1]benzamide [Example 6]” was tested. Which ED50 did it give?
Answer: The ED50 was 1.1 p.o. ½ hr mg/kg.

same assay, conditions: s.c., 4 hrs post dosing; dose for 50% inhibition of climbing induced by apomorphine 1 mg/kg s.c.; male CD1 mice

Question: With “4-Amino-5-chloro-2-methoxy-N-[6'-exo-hydroxy-8'-benzyl-8'-azabicyclol[3.2.1]-oct-3'-β-yl]-benzamide [Example 4]” as the molecule, how does the ED50 read?
Answer: Its ED50 is 0.47 s.c. 4 hrs mg/kg.
